Measured values from PubChem BioAssay (NCI).
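Compound exposure: 48 hours, 5 concentrations, 96-well plates. TGI denotes the concentration required for complete inhibition of growth.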

How the values were obtained:
Assay in all cases: NCI anticancer screen, dose series, 48 h
[1] = tested on: 786-0 renal
[2] = tested on: DMS 273 small cell lung
[3] = tested on: SF-268 CNS
[4] = tested on: A498 renal
[5] = tested on: SK-MEL-2 melanoma
[6] = tested on: SK-MEL-5 melanoma
[7] = tested on: DLD-1 colon
[8] = tested on: LXFL 529 NSCLC
[9] = tested on: SW-620 colon
[10] = tested on: HCC-2998 colon
[11] = tested on: SNB-78 CNS
[12] = tested on: SNB-19 CNS
[13] = tested on: RXF 393 renal
[14] = tested on: DMS 114 small cell lung
[15] = tested on: SF-295 CNS
[16] = tested on: NCI-H522 lung
[17] = tested on: MOLT-4 leukemia
[18] = tested on: RPMI-8226 leukemia
[19] = tested on: SNB-75 CNS
[20] = tested on: XF 498 CNS
[21] = tested on: HOP-92 NSCLC
[22] = tested on: TK-10 renal
[23] = tested on: LOX IMVI melanoma
[24] = tested on: HCT-15 colon
[25] = tested on: OVCAR-3 ovarian
[26] = tested on: NCI-H460 lung
[27] = tested on: NCI-H23 lung
[28] = tested on: HT29 colon
[29] = tested on: OVCAR-5 ovarian
[30] = tested on: UO-31 renal
[31] = tested on: KM20L2 colon
[32] = tested on: KM12 colon
[33] = tested on: CCRF-CEM leukemia
[34] = tested on: OVCAR-4 ovarian
[35] = tested on: OVCAR-8 ovarian
[36] = tested on: HCT-116 colon
[37] = tested on: SK-MEL-28 melanoma
[38] = tested on: U251 CNS
[39] = tested on: SK-OV-3 ovarian
[40] = tested on: IGROV1 ovarian
[41] = tested on: K-562 leukemia
[42] = tested on: ACHN renal
[43] = tested on: COLO 205 colon
[44] = tested on: SR leukemia
[45] = tested on: A549 NSCLC
[46] = tested on: HL-60(TB) leukemia
[47] = tested on: HOP-62 NSCLC
[48] = tested on: M19-MEL melanoma
[49] = tested on: CAKI-1 renal
[50] = tested on: NCI-H226 lung
[51] = tested on: UACC-257 melanoma
[52] = tested on: SN12C renal
[53] = tested on: MALME-3M melanoma
[54] = tested on: SF-539 CNS
[55] = tested on: UACC-62 melanoma
[56] = tested on: M14 melanoma
[57] = tested on: EKVX NSCLC
[58] = tested on: HOP-18 NSCLC

Compound: COc1cc2c(cc1OC)C(Cc1ccc(Oc3cc(CC4c5cc(OC)c(OC)cc5CCN4C)ccc3O)cc1)N(C)CC2 (centres undefined)
- TGI [1]: 27.1 µM
- TGI [2]: 47.8 µM
- TGI [3]: 28.7 µM
- TGI [4]: 49.1 µM
- TGI [5]: 31 µM
- TGI [6]: 29.1 µM
- TGI [7]: 38.7 µM
- TGI [8]: 28.5 µM
- TGI [9]: 35.5 µM
- TGI [10]: 28.1 µM
- TGI [11]: > 100 µM
- TGI [12]: > 100 µM
- TGI [13]: 29.4 µM
- TGI [14]: 30.9 µM
- TGI [15]: 47.1 µM
- TGI [16]: 25 µM
- TGI [17]: 41.5 µM
- TGI [18]: 51.4 µM
- TGI [19]: 31.6 µM
- TGI [20]: 34.2 µM
- TGI [21]: 55.9 µM
- TGI [22]: > 100 µM
- TGI [23]: 32.6 µM
- TGI [24]: 32 µM
- TGI [25]: 50.1 µM
- TGI [26]: 80.4 µM
- TGI [27]: > 100 µM
- TGI [28]: 28.9 µM
- TGI [29]: > 100 µM
- TGI [30]: 28.3 µM
- TGI [31]: 34.3 µM
- TGI [32]: 70.7 µM
- TGI [33]: 58.4 µM
- TGI [34]: 54.7 µM
- TGI [35]: > 100 µM
- TGI [36]: 22 µM
- TGI [37]: 30.2 µM
- TGI [38]: 38.2 µM
- TGI [39]: > 100 µM
- TGI [40]: 56.5 µM
- TGI [41]: 29.3 µM
- TGI [42]: 35.2 µM
- TGI [43]: 23.8 µM
- TGI [44]: 24.1 µM
- TGI [45]: > 100 µM
- TGI [46]: 30.4 µM
- TGI [47]: 57.4 µM
- TGI [48]: 39 µM
- TGI [49]: 73.3 µM
- TGI [50]: 57.5 µM
- TGI [51]: 32 µM
- TGI [52]: > 100 µM
- TGI [53]: 34.7 µM
- TGI [54]: 30.6 µM
- TGI [55]: 32.4 µM
- TGI [56]: 28.7 µM
- TGI [57]: > 100 µM
- TGI [58]: 76.6 µM

Compound: CN1C(=O)N(C)C(N2CCCC2)c2c1nc1ccccn1c2=O (centres undefined)
- TGI [1]: > 100 µM
- TGI [2]: > 100 µM
- TGI [3]: > 100 µM
- TGI [4]: > 100 µM
- TGI [5]: > 100 µM
- TGI [7]: > 100 µM
- TGI [8]: > 100 µM
- TGI [9]: > 100 µM
- TGI [10]: > 100 µM
- TGI [11]: > 100 µM
- TGI [12]: > 100 µM
- TGI [13]: > 100 µM
- TGI [14]: > 100 µM
- TGI [15]: > 100 µM
- TGI [16]: > 100 µM
- TGI [17]: > 100 µM
- TGI [18]: > 100 µM
- TGI [19]: > 100 µM
- TGI [20]: > 100 µM
- TGI [21]: > 100 µM
- TGI [22]: > 100 µM
- TGI [23]: > 100 µM
- TGI [24]: > 100 µM
- TGI [25]: > 100 µM
- TGI [26]: > 100 µM
- TGI [27]: > 100 µM
- TGI [28]: > 100 µM
- TGI [30]: > 100 µM
- TGI [31]: > 100 µM
- TGI [32]: > 100 µM
- TGI [33]: > 100 µM
- TGI [34]: > 100 µM
- TGI [35]: > 100 µM
- TGI [36]: > 100 µM
- TGI [37]: > 100 µM
- TGI [38]: > 100 µM
- TGI [39]: > 100 µM
- TGI [40]: > 100 µM
- TGI [41]: > 100 µM
- TGI [42]: > 100 µM
- TGI [43]: > 100 µM
- TGI [44]: > 100 µM
- TGI [45]: > 100 µM
- TGI [46]: > 100 µM
- TGI [47]: > 100 µM
- TGI [48]: > 100 µM
- TGI [50]: > 100 µM
- TGI [51]: > 100 µM
- TGI [52]: > 100 µM
- TGI [53]: > 100 µM
- TGI [54]: > 100 µM
- TGI [55]: > 100 µM
- TGI [56]: > 100 µM
- TGI [57]: > 100 µM
- TGI [58]: > 100 µM

Compound: Cc1c2nc3ccccc3sc-2cc(=O)c1C
- TGI [1]: > 100 µM
- TGI [2]: > 100 µM
- TGI [3]: > 100 µM
- TGI [4]: > 100 µM
- TGI [5]: > 25.2 µM
- TGI [6]: > 100 µM
- TGI [7]: > 100 µM
- TGI [8]: > 100 µM
- TGI [9]: > 100 µM
- TGI [10]: > 100 µM
- TGI [11]: > 100 µM
- TGI [12]: > 100 µM
- TGI [13]: > 100 µM
- TGI [14]: 79.7 µM
- TGI [15]: > 100 µM
- TGI [16]: > 100 µM
- TGI [17]: > 100 µM
- TGI [18]: > 100 µM
- TGI [19]: > 100 µM
- TGI [20]: > 100 µM
- TGI [21]: > 100 µM
- TGI [22]: > 100 µM
- TGI [23]: > 100 µM
- TGI [24]: > 100 µM
- TGI [25]: > 90.6 µM
- TGI [26]: > 100 µM
- TGI [27]: > 100 µM
- TGI [28]: > 100 µM
- TGI [29]: > 100 µM
- TGI [30]: > 100 µM
- TGI [31]: > 100 µM
- TGI [32]: > 100 µM
- TGI [33]: > 100 µM
- TGI [34]: > 100 µM
- TGI [35]: > 100 µM
- TGI [36]: > 100 µM
- TGI [37]: > 100 µM
- TGI [38]: > 100 µM
- TGI [39]: > 100 µM
- TGI [40]: > 100 µM
- TGI [41]: > 91.6 µM
- TGI [42]: > 100 µM
- TGI [43]: > 89.2 µM
- TGI [45]: > 100 µM
- TGI [46]: > 85.5 µM
- TGI [47]: > 100 µM
- TGI [48]: 29.7 µM
- TGI [49]: > 100 µM
- TGI [50]: > 100 µM
- TGI [51]: > 46.8 µM
- TGI [53]: > 100 µM
- TGI [54]: > 100 µM
- TGI [55]: 70.3 µM
- TGI [56]: > 100 µM
- TGI [57]: > 100 µM
- TGI [58]: > 100 µM
